# Reference: PMC8307938, “The Lysozyme Inhibitor Thionine Acetate Is Also an Inhibitor of the Soluble Lytic Transglycosylase Slt35 from Escherichia coli” (Molecules, 2021)
# Biological target: T1, Slt35 (Escherichia coli, UniProt P41052)
# T1 construct: gene mltB; N-terminal His-tag
# T1 sequence (P41052 19-361): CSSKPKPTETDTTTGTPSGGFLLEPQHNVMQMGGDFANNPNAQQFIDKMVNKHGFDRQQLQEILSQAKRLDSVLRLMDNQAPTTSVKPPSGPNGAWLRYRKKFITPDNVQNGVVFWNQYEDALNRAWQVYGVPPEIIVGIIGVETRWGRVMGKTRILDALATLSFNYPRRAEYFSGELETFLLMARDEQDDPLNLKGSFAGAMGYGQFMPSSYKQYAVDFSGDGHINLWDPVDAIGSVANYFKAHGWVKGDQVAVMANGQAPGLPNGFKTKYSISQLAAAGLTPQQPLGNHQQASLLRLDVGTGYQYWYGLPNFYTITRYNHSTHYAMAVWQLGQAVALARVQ
# Test: saturation transfer difference NMR ([…] compound, […] Slt35; weak; no inhibition up to […])
# Type: binding
smiles,measurement,value
OC[C@H]1NC[C@H](O)[C@@H](O)[C@@H]1O [1-deoxynojirimycin],"saturation transfer difference NMR (5 mM compound, 20 μM Slt35); weak; no inhibit","weak enhancement of signals from 1-deoxynojirimycin on selective excitation of Slt35 (Figure S1), suggesting that this compound is capable of binding"
